# Values of other authors, collected in patent publication US12357667B2, “Nutraceutical formulations to prevent, treat, and inhibit excess cytokines, SARS-CoV-2 spike proteins, and mRNA vaccine spike proteins” (priority 2021, dated 2025).
# Structures can show the parent of a compound that is named as a salt.
# Assays:
# CB1 = CB1 (Homo sapiens, UniProt P21554)
# [1] = biological target: cannabinoid G-protein coupled receptor CB2 (Homo sapiens, UniProt P34972)
# Furin = Furin (Homo sapiens, UniProt P09958)
# SARS-CoV-2 [2] = conditions: structure-based molecular docking
# [3] = test system: pseudovirus expressing the SARS-CoV-2 spike protein
# SARS-CoV-2 [4] = test system: SARS-CoV-2
# [5] = hyperlipidemic rats
# [6] = 6 mg/day for 4 weeks, active young men
# main proteases (6Y2E) = biological target: T1, main proteases (6Y2E) (Severe acute respiratory syndrome coronavirus 2, UniProt P0DTD1); conditions: 6Y2E active sites
# T1 construct: main proteases (6LU7 and 6Y2E)
# [7] = biological target: T2, 3-chymotrypsin-like protease (3CLpro) (Severe acute respiratory syndrome coronavirus 2, UniProt P0DTD1)
# T2 construct: 3-chymotrypsin-like protease (3CLpro)
# SARS-CoV-2 viral S-spike = SARS-CoV-2 viral S-spike (Severe acute respiratory syndrome coronavirus 2, UniProt P0DTC2); conditions: supercomputer modeling; out of 20 top performers
# [8] = biological target: T3, papain-like protease (PLpro) (Severe acute respiratory syndrome coronavirus 2, UniProt P0DTD1)
# T3 construct: papain-like protease (PLpro)
# [9] = not given; remark: listed apart in the source
# [10] = test system: glutamate-cysteine ligase; design: dose or concentration left out as unconfirmed; conditions: zinc, ARPE-19 cells
# SARS-CoV-2 [11] = test system: SARS-CoV-2; remark: listed apart in the source
# SARS-CoV-2 [12] = conditions: lung epithelial cells
# SARS-CoV-2 [13] = test system: SARS-CoV-2; remark: listed apart in the source
# SARS-CoV-2 [14] = conditions: patients previously taking CBD relative to matched pairs or the general population
# [15] = test system: mouse hepatitis virus (MHV); conditions: A549-MHVR cells, non-toxic conditions; read-out: EC50, suppression of MHV replication
# influenza = conditions: 6-month preventive administration
# RBD and ACE2 = RBD and ACE2 (Severe acute respiratory syndrome coronavirus 2, UniProt P0DTC2)
# [16] = test system: human influenza viruses (H5N1, Vietnam/VN1203 strain)
# pseudotyped SARS-CoV-2 = conditions: VeroE6/TMPRSS2 cells
# blood coagulation = conditions: in vitro coagulation assays
# [17] = test system: multiple strains of SARS-CoV-2, including Delta and Omicron
# [18] = test system: respiratory syncytial virus; conditions: respiratory syncytial virus-infected mice
# Sequence of CB1 (P21554 whole entry, species assumed): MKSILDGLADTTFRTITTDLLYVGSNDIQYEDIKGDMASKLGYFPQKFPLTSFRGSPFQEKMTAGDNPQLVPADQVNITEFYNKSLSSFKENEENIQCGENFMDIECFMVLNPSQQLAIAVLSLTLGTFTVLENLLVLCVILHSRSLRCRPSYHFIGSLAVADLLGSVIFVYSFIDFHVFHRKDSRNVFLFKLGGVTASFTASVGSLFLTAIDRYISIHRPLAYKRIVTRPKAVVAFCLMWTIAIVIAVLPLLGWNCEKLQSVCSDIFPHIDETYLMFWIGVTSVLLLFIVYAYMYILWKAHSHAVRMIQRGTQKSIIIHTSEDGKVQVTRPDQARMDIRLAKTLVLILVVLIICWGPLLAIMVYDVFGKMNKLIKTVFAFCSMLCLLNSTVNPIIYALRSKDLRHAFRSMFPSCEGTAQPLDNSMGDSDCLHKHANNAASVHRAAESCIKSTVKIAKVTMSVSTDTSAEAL
# Sequence of cannabinoid G-protein coupled receptor CB2 (P34972 whole entry): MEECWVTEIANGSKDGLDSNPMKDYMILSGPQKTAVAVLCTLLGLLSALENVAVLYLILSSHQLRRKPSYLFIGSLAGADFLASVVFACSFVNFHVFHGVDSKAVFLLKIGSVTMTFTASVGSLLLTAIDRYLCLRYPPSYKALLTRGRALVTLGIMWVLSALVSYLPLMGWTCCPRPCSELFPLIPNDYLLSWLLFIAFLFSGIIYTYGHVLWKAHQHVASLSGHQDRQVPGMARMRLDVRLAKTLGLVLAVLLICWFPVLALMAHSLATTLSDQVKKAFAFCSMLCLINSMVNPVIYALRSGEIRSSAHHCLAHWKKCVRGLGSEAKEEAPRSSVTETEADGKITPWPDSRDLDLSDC
# Sequence of Furin (P09958 108-794, species assumed): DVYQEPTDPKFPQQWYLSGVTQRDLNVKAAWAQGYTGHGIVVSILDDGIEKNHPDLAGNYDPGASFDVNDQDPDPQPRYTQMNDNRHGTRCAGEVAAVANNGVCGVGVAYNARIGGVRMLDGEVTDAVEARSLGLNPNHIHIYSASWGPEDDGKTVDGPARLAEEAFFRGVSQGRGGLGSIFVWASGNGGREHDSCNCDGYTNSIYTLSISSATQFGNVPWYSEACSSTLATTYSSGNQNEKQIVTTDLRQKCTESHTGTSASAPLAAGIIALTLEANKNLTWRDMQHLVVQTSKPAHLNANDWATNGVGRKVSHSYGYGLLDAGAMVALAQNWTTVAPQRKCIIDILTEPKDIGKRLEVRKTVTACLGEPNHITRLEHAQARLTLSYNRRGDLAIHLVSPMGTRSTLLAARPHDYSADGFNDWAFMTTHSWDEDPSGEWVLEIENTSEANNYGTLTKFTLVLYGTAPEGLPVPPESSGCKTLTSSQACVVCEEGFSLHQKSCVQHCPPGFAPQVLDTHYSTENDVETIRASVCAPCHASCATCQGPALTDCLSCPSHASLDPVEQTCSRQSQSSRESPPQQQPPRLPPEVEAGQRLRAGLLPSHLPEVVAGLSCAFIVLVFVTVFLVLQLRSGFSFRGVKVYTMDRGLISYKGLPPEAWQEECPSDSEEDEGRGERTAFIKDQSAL
compound,measurement,setting,value
CCCCCc1cc(O)c2c(c1)OC(C)(C)c1ccc(C)cc1-2 [Cannabinol],affinity for CB1,CB1,minimal affinity
same,binding to CB2,[1],preferentially binds
Nc1nc2ncc(CNc3ccc(C(=O)N[C@@H](CCC(=O)O)C(=O)O)cc3)nc2c(=O)[nH]1 [folic acid],furin inhibition,Furin,inhibit furin
same,binding affinities against the SARS-CoV-2,SARS-CoV-2 [2],strong and stable binding affinities
C=C(C)[C@@H]1CCC(C)=C[C@H]1c1c(O)cc(CCCCC)c(C(=O)O)c1O [cannabidiolic acid],entry of live SARS-CoV-2 into cells,live SARS-CoV-2,prevented entry
same,infection of human epithelial cells by pseudovirus,[3],prevented infection
bromelain,infection of VeroE6 cells by SARS-CoV-2,SARS-CoV-2 [4],inhibits infection
same,toxicity,PGE-2,very low toxicity
same,effect on PGE-2 inhibition,PGE-2; compared with prednisone and aspirin,exceeds that of prednisone and aspirin
CN1c2c(nc(N)[nH]c2=O)NCC1CNc1ccc(C(=O)N[C@@H](CCC(=O)O)C(=O)O)cc1 (stereo partly shown) [5-methyl tetrahydrofolic acid],binding affinities against the SARS-CoV-2,SARS-CoV-2 [2],strong and stable binding affinities
CC1=C(/C=C/C(C)=C/C=C/C(C)=C/C=C/C=C(C)/C=C/C=C(C)/C=C/C2=C(C)C(=O)[C@@H](O)CC2(C)C)C(C)(C)C[C@H](O)C1=O [Astaxanthin],"coagulation, fibrinolytic activity and platelet aggregation",[5],"inhibit coagulation, increase fibrinolytic activity and reduce platelet aggregation"
same,Glutathione higher compared with placebo,[6],~7%
same,oxidative stress markers or substrate utilization during exercise,[6],did not affect
same,"Glutathione, whole blood",[6]; fasting blood sample,"1,233±133 μM"
CC1(C)CC[C@]2(C(=O)O)CC[C@]3(C)C(=CC[C@@H]4[C@@]5(C)CC[C@H](O)[C@@](C)(CO)[C@@H]5CC[C@]43C)[C@@H]2C1 [hederagenin],docking binding score with 6Y2E,main proteases (6Y2E),less than saquinavir
O=c1c(O)c(-c2ccc(O)c(O)c2)oc2cc(O)cc(O)c12 [Quercetin],docking binding energy,[7],-6.25 kcal/mol
same,rank for inhibition of SARS-CoV-2 viral S-spike binding to cells,SARS-CoV-2 viral S-spike,fifth
same,oral absorption / systemic bioavailability,,reduced oral absorption
same,docking binding energy,[8],-4.62 kcal/mol
same,solubility,[9],low solubility
"CCCCCc1cc(O)c(C/C=C(\C)CCC=C(C)C)c(O)c1 [CBG, Cannabigerol]",levels of DNA damage proteins,astrocytes,decreased levels
same,levels of interleukin-6 (IL-6) and lactate dehydrogenase (LDH),astrocytes,attenuated levels
"COc1cc(/C=C/C(=O)CC(=O)/C=C/c2ccc(O)c(OC)c2)ccc1O [curcumin, diferuloylmethane]",oral absorption / systemic bioavailability,,minimal absorption
CCCCCc1cc(O)c(C/C=C(\C)CCC=C(C)C)c(O)c1C(=O)O [cannabigerolic acid],entry of live SARS-CoV-2 into cells,live SARS-CoV-2,prevented entry
same,infection of human epithelial cells by pseudovirus,[3],prevented infection
[Zn] [zinc],mRNA levels of glutamate-cysteine ligase,[10],upregulates
C=C(CC(=O)OCCCCCCCC)C(=O)O [4-octyl-itaconate],replication of SARS-CoV-2 in vitro,SARS-CoV-2 [11],inhibited replication
"C=C(C)[C@@H]1CCC(CO)=C[C@H]1c1c(O)cc(CCCCC)cc1O [7-0H-CBD, 7-OH-CBD]",block of SARS-CoV-2 replication,SARS-CoV-2 [12],potently block
Nc1nc2c(c(=O)[nH]1)NC(CNc1ccc(C(=O)N[C@@H](CCC(=O)O)C(=O)O)cc1)CN2 (stereo partly shown) [tetrahydrofolic acid],binding affinities against the SARS-CoV-2,SARS-CoV-2 [2],strong and stable binding affinities
"C=C(C)[C@@H]1CCC(C)=C[C@H]1c1c(O)cc(CCCCC)cc1O [CBD, Cannabidiol]",inhibition of SARS-CoV-2 replication,SARS-CoV-2 [13]; Vero E6 monkey kidney epithelial cells,inhibited SARS-CoV-2 replication
same,toxicity,SARS-CoV-2 [13]; at the effective doses,No toxicity
same,SARS-CoV-2 infection incidence,SARS-CoV-2 [14],significantly lower
same,"IL-1β, IL-6, TNF and IL-18","Caco-2 cells; ELISA, CBD 10-9-10-7 M",parallel inhibition
same,transepithelial electrical resistance (TEER),Caco-2 cells; following CBD treatment,restoration
same,"proinflammatory markers triggered by Spike Protein (TLR-4, ACE-2, RhoA-GTPase, NLRP3, Caspase-1)","Caco-2 cells; immunoblot, CBD 10-9-10-7 M",reduce all the analyzed proinflammatory markers
same,EC50,[15],~5 µM
same,block of SARS-CoV-2 replication,SARS-CoV-2 [12],potently block
"C=C(C)[C@@H]1CCC(C)=C[C@H]1c1c(O)cc(CCC)cc1O [CBDV, cannabidivarin, reference compound]",levels of interleukin-6 (IL-6) and lactate dehydrogenase (LDH),astrocytes,attenuated levels
"CC(=O)N[C@@H](CS)C(=O)O [N-acetylcysteine, reference compound]",spike-mediated cell-cell fusion,SARS-CoV-2 spike,inhibited
same,incidence of clinically apparent influenza and influenza-like episodes,influenza,significantly reduced
same,in vitro binding of RBD and ACE2,RBD and ACE2,inhibited
same,inhibition of H5N1 replication,[16],dose dependent manner
same,"production of pro-inflammatory cytokines (IL-8, CXCL10, CCL5 and IL-6)",[16],reduced the production
same,pseudotyped viral infection,pseudotyped SARS-CoV-2,inhibited
"N[C@@H](CCC(=O)N[C@@H](CS)C(=O)NCC(=O)O)C(=O)O [glutathione, γ-glutamyl cysteinyl glycine]",spike-mediated cell-cell fusion,SARS-CoV-2 spike,inhibited
same,oral absorption / systemic bioavailability,,poor
same,in vitro binding of RBD and ACE2,RBD and ACE2,inhibited
same,pseudotyped viral infection,pseudotyped SARS-CoV-2,inhibited
CC1=CC(=O)C(C(C)C)=CC1=O [Thymoquinone],anticoagulant activity,blood coagulation,possesses anticoagulant activity
Cc1c(-c2cnccn2)ssc1=S [oltipraz],ACE2 levels,ACE2,reduces ACE2 levels
"C[S+]([O-])CCCCN=C=S (stereo not shown) [SFN, Sulforaphane]",antiviral activity,HCoV-OC43,potent antiviral activity
same,toxicity in cell culture,[17],limited toxicity
same,antiviral activity,"[17]; multiple strains of SARS-CoV-2, including Delta and Omicron",potent antiviral activity
same,lung viral replication and virus-induced inflammation,[18],significantly limited
COC(=O)/C=C/C(=O)OC [dimethyl fumarate],replication of SARS-CoV-2 in vitro,SARS-CoV-2 [11],inhibited replication
